Patent US12331044B2, “Inhibitors of histone deacetylase useful for the treatment or prevention of HIV infection” (Merck Sharp & Dohme LLC, priority 2018, dated 2025)
Where two headings read alike, the source gives them in different places.

Key:
human HDAC1 = human HDAC1 (Homo sapiens (Human), UniProt Q13547); experiment: biochemical
HDAC6 = HDAC6 (Homo sapiens (Human), UniProt Q9UBN7); experiment: biochemical
[1] = target: human HDAC3/SMRT heterodimer (Homo sapiens (Human), UniProt O15379); experiment: biochemical
human HDAC8 = human HDAC8 (Homo sapiens (Human), UniProt Q9BY41); experiment: HDAC8 inhibition assay (modified FLUOR DE LYS, 384-well); type: biochemical; conditions: […] nM enzyme, 200 μM substrate BML-KI178, 3 h pre-incubation; read-out: HDAC8 IC50
Description: The histone deacetylase activities of HDAC1, HDAC2, HDAC3, HDAC6, and HDAC8 were measured in modified FLUOR DE LYS assays in 384-well format. In this assay, HDAC enzymes are initially incubated with an F-acetyl (or -trifluoroacetyl)-L-lysine-containing substrate with a C-terminal amide having aminomethylcoumarin as the amine component. HDACs cleave the F-acetyl group, rendering the resulting product susceptible to AMC cleavage by trypsin. The released AMC is then detected by its fluorescence. […] All steps were performed at room temperature (23° C.). The assay was performed by pre-incubating serial dilutions of test compounds with the target HDAC prior to initiation with substrate. […] Final conditions used for each assay were: 1. […] The reactions were stopped and developed by addition of 30 ul of HDAC developer solution containing a saturating level of HDAC inhibitor as follows: 1. […] For data analysis, background subtracted product (fluorescence) vs. time data for each inhibitor concentration was fitted using a 4-parameter fit.

human HDAC2 = human HDAC2 (Homo sapiens (Human), UniProt Q92769); experiment: HDAC2 inhibition assay (modified FLUOR DE LYS, 384-well); type: biochemical; conditions: […] nM enzyme, 40 μM substrate BML-KI104, 3 h pre-incubation; read-out: HDAC2 IC50
KARN cells (Jurkat 2C4) = experiment: cells; conditions: Homo sapiens
Description: KARN Assay Cell Maintenance
KARN cells (Jurkat 2C4) were licensed from the laboratory of Dr. John Karn, Case Western Reserve University, School of Medicine. […] An atmosphere of 5% CO2 and 90% humidity was used for all culture work.
These flasks were returned to the incubator.
The cells were gently resuspended in assay media (30 ml) and pelleted again. […] The cells were counted using the ViCell (Beckman Coulter) and diluted as necessary. […] The plates were covered and returned to the incubator prior to compound addition.
The reference compounds, DMSO and SAHA were then added to the compound plate. […] The final high concentration for SAHA and the test compounds in the assays was 40 μM. The final DMSO concentration in all wells was 0.4%. The minimal induction reference compound used was DMSO and the maximal induction reference compound used was SAHA (2 μM final concentration in the assay).
Day 3: The luciferase detection reagent was prepared by transferring the contents of one bottle of Steady-Glo buffer to one bottle of Steady-Glo aubstrate (Steady-Glo Luciferase Assay System, Promega, catalog number E2520), followed by gently mixing until the substrate was thoroughly dissolved and the solution was equilibrated to room temperature. […] The Steady-Glo Reagent was added to the plates (30 μl/well), which were then covered with a black lid and incubated for 10 minutes at room temperature. The plates were then read for luminescence on an Envision (Perkin Elmer) using the ultrasensitive mode (US LUM), 0.1 counts per second and 384-well aperture. Luminescence counts in the DMSO reference wells were considered as 0% induction, while those in the 2 μM SAHA reference wells were considered as 100% induction. Dose response curves were plotted as test compound concentration (X-axis) vs. percent activation (Y-axis) using a 4-parameter fit based on the Levenberg-Marquardt algorithm.

[2] = read-out: Karn EC50 nM 0.1% NHS, 0.1% normal human serum, luciferase induction, 2 μM SAHA = 100%
[3] = read-out: Karn EC50 nM 5% NHS, 5% normal human serum, luciferase induction, 2 μM SAHA = 100%
[4] = read-out: Karn EC50 nM 0.1% NHS

Sequence of human HDAC1 (Q13547 whole entry): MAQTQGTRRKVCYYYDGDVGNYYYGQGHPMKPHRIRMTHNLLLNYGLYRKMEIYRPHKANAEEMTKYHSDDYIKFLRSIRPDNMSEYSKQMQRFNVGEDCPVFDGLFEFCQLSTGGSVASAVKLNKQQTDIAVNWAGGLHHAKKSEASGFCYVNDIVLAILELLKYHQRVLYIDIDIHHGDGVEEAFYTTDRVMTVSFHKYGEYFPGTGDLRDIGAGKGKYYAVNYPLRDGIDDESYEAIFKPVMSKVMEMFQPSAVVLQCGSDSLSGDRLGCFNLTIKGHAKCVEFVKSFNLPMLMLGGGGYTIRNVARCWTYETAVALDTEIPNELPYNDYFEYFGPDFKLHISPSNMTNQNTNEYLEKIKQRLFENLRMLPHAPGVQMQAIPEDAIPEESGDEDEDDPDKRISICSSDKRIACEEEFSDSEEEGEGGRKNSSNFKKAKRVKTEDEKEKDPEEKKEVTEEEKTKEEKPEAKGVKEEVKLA
Sequence of HDAC6 (Q9UBN7 whole entry): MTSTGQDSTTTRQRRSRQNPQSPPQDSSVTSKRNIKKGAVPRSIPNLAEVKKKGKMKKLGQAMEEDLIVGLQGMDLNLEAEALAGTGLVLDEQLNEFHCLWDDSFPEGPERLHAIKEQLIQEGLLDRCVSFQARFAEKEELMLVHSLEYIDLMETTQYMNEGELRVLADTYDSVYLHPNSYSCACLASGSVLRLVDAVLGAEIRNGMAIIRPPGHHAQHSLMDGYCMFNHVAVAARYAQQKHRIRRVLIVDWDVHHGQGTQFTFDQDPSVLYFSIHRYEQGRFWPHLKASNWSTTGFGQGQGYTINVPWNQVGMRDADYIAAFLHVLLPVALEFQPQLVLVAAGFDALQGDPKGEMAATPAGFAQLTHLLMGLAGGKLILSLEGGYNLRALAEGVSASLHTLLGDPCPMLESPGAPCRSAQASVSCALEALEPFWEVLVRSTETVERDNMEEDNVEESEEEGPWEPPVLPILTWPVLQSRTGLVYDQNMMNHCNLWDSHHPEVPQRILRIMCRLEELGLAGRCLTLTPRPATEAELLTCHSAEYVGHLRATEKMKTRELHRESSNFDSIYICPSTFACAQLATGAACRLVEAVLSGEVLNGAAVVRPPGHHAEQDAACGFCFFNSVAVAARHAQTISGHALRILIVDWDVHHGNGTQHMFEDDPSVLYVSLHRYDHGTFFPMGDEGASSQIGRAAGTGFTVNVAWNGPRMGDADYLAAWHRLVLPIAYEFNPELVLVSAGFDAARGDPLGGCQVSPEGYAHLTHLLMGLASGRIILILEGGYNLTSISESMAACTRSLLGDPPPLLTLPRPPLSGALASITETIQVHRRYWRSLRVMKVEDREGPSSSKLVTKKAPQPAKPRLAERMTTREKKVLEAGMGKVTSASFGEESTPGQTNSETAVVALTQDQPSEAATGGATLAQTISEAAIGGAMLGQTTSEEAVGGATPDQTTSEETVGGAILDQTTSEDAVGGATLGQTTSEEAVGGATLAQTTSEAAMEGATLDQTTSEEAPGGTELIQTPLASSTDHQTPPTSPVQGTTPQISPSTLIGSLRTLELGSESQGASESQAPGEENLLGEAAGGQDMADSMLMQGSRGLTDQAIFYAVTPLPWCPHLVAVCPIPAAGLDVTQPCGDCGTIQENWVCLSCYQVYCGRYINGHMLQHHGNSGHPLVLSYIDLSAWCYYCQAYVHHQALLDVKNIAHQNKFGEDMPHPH
Sequence of human HDAC3/SMRT heterodimer (O15379 whole entry): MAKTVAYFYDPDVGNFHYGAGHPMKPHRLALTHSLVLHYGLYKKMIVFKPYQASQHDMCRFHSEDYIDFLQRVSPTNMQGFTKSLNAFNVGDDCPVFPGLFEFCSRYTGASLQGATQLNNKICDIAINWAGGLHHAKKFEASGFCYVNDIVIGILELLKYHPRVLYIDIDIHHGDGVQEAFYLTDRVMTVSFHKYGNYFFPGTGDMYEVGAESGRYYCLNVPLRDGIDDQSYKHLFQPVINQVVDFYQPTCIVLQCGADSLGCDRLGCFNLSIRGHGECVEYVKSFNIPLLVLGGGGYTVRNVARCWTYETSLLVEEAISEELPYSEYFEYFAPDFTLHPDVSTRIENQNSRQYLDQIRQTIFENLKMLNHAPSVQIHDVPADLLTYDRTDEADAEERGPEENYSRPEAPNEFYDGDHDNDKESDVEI
Sequence of human HDAC3/SMRT heterodimer (Q9Y618 1-899 partner): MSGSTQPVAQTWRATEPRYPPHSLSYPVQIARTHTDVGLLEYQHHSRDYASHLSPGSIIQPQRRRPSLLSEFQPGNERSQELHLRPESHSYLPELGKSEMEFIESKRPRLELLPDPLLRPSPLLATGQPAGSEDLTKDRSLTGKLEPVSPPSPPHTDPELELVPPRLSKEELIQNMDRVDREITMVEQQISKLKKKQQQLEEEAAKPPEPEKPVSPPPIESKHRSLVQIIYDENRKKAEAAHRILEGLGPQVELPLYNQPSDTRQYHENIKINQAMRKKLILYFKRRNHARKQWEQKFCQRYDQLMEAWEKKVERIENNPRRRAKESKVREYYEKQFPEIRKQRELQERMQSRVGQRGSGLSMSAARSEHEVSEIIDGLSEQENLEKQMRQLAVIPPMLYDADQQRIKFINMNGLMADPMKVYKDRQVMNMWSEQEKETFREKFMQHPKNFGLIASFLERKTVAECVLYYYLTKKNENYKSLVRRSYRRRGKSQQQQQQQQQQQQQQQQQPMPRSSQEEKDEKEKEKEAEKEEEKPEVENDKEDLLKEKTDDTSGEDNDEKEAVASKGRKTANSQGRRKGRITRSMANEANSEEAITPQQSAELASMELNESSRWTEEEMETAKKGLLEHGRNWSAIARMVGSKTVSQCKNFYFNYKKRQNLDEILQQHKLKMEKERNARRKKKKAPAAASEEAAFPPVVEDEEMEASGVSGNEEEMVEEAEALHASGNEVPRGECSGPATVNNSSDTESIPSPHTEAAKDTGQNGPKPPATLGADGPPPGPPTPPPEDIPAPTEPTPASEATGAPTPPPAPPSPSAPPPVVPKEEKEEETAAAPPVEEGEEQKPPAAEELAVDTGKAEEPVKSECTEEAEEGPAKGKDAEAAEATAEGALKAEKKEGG
Sequence of human HDAC8 (Q9BY41 whole entry): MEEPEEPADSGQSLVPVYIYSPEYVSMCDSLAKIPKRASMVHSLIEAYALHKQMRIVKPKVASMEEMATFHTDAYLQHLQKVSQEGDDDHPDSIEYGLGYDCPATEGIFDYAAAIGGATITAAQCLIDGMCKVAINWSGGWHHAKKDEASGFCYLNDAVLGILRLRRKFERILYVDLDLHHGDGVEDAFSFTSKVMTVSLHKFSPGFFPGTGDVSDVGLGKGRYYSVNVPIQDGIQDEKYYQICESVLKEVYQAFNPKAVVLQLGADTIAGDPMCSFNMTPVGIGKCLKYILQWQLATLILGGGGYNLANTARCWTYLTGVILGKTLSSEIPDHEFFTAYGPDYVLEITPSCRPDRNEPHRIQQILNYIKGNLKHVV
Sequence of human HDAC2 (Q92769 whole entry): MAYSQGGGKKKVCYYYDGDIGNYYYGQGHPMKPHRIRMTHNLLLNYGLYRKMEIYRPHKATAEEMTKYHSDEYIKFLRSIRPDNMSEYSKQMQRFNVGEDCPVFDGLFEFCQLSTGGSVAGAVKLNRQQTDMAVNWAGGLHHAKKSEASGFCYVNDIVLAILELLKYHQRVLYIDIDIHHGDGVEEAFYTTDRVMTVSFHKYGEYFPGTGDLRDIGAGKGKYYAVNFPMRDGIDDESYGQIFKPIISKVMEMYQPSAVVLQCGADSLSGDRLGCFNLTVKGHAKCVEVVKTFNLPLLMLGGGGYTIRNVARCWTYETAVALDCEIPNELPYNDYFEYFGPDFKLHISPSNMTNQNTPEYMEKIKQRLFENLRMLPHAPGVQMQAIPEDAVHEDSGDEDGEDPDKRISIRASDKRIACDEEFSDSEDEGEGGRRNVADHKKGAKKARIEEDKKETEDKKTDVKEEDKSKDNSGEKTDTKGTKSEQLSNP

COc1ncccc1-c1c[nH]c([C@@H](N)CCCCCC(=O)c2ccon2)n1 [Example 33, (S)-7-amino-1-(isoxazol-3-yl)-7-(4-(2-methoxypyridin-3-yl)-1H-imidazol-2-yl)heptan-1-one]
IC50 (human HDAC1): 0.73 nM
IC50 (HDAC6): ≥ 45000 nM
IC50 [1]: 0.84 nM
IC50 (human HDAC8): 110 nM
IC50 (human HDAC2): 4.3 nM
EC50 (KARN cells (Jurkat 2C4); [2]): 61 nM
EC50 (KARN cells (Jurkat 2C4); [3]): 84 nM

O=C1CC[C@](CCCCCC(=O)c2ncco2)(c2ncc(-c3ccc(F)cc3)[nH]2)N1 [Example 65, (R)-5-(5-(4-fluorophenyl)-1H-imidazol-2-yl)-5-(6-(oxazol-2-yl)-6-oxohexyl)pyrrolidin-2-one]
IC50 (human HDAC1): 2.2 nM
IC50 (HDAC6): ≥ 45000 nM
IC50 [1]: 2.2 nM
IC50 (human HDAC8): 3100 nM
IC50 (human HDAC2): 11 nM
EC50 (KARN cells (Jurkat 2C4); [2]): 470 nM
EC50 (KARN cells (Jurkat 2C4); [3]): 630 nM

O=C1NC(CCCCCC(=O)c2ncco2)(c2nc(-c3ccc(F)cc3)c[nH]2)CO1 (stereo not drawn) [Example 66, 4-(4-(4-fluorophenyl)-1H-imidazol-2-yl)-4-(6-(oxazol-2-yl)-6-oxohexyl)oxazolidin-2-one]
IC50 (human HDAC1): 4.4 nM
IC50 (HDAC6): ≥ 45000 nM
IC50 [1]: 3.1 nM
IC50 (human HDAC8): 4400 nM
IC50 (human HDAC2): 15 nM
EC50 (KARN cells (Jurkat 2C4); [2]): 380 nM
EC50 (KARN cells (Jurkat 2C4); [3]): 530 nM

O=C1CC[C@@](CCCCCC(=O)c2ccon2)(c2nc(-c3ccc(-c4ncco4)cc3F)c[nH]2)N1 [Example 67, (S)-5-(4-(2-fluoro-4-(oxazol-2-yl)phenyl)-1H-imidazol-2-yl)-5-(6-(isoxazol-3-yl)-6-oxohexyl)pyrrolidin-2-one]
IC50 (human HDAC1): 1.8 nM
IC50 (HDAC6): ≥ 45000 nM
IC50 [1]: 1.5 nM
IC50 (human HDAC8): 400 nM
IC50 (human HDAC2): 4.3 nM
EC50 (KARN cells (Jurkat 2C4); [2]): 51 nM
EC50 (KARN cells (Jurkat 2C4); [3]): 95 nM

O=C1CC[C@@](CCCCCC(=O)c2ccon2)(c2nc(-c3ccc(C4CC4)cc3F)c[nH]2)N1 [Example 68, (S)-5-(4-(4-cyclopropyl-2-fluorophenyl)-1H-imidazol-2-yl)-5-(6-(isoxazol-3-yl)-6-oxohexyl)pyrrolidin-2-one]
IC50 (human HDAC1): 1 nM
IC50 (HDAC6): > 900 nM
IC50 [1]: 0.55 nM
IC50 (human HDAC8): 230 nM
IC50 (human HDAC2): 5 nM
EC50 (KARN cells (Jurkat 2C4); [2]): 34 nM
EC50 (KARN cells (Jurkat 2C4); [3]): 110 nM

O=C1CC[C@@](CCCCCC(=O)c2ccon2)(c2nc(-c3ccccc3F)c[nH]2)N1 [Example 69, (S)-5-(4-(2-fluorophenyl)-1H-imidazol-2-yl)-5-(6-(isoxazol-3-yl)-6-oxohexyl)pyrrolidin-2-one]
IC50 (human HDAC1): 0.92 nM
IC50 (HDAC6): > 900 nM
IC50 [1]: 0.79 nM
IC50 (human HDAC8): 210 nM
IC50 (human HDAC2): 4.2 nM
EC50 (KARN cells (Jurkat 2C4); [2]): 96 nM
EC50 (KARN cells (Jurkat 2C4); [3]): 260 nM

COc1cc2nc(C)ccc2cc1-c1cnc([C@@]2(CCCCCC(=O)c3ccon3)CCC(=O)N2)[nH]1 [Example 70, (R)-5-(6-(isoxazol-3-yl)-6-oxohexyl)-5-(5-(7-methoxy-2-methylquinolin-6-yl)-1H-imidazol-2-yl)pyrrolidin-2-one]
IC50 (human HDAC1): 0.78 nM
IC50 (HDAC6): > 900 nM
IC50 [1]: 1.1 nM
IC50 (human HDAC8): 260 nM
IC50 (human HDAC2): 3.5 nM
EC50 (KARN cells (Jurkat 2C4); [2]): 31 nM
EC50 (KARN cells (Jurkat 2C4); [3]): 110 nM

COc1ncccc1-c1c[nH]c([C@]2(CCCCCC(=O)c3ccon3)CCCC(=O)N2)n1 [Example 71, (S)-6-(6-(isoxazol-3-yl)-6-oxohexyl)-6-(4-(2-methoxypyridin-3-yl)-1H-imidazol-2-yl)piperidin-2-one]
IC50 (human HDAC1): 1.19 nM
IC50 (HDAC6): > 900 nM
IC50 [1]: 1.8 nM
IC50 (human HDAC8): 690 nM
IC50 (human HDAC2): 6.1 nM
EC50 (KARN cells (Jurkat 2C4); [2]): 330 nM
EC50 (KARN cells (Jurkat 2C4); [3]): 490 nM

O=C1CCCC[C@@](CCCCCC(=O)c2ccon2)(c2nc(-c3ccccc3F)c[nH]2)N1 [Example 72, (S)-7-(4-(2-fluorophenyl)-1H-imidazol-2-yl)-7-(6-(isoxazol-3-yl)-6-oxohexyl)azepan-2-one]
IC50 (human HDAC1): 17 nM
IC50 (HDAC6): > 900 nM
IC50 [1]: 17 nM
IC50 (human HDAC8): > 900 nM
IC50 (human HDAC2): 89 nM
EC50 (KARN cells (Jurkat 2C4); [2]): 650 nM
EC50 (KARN cells (Jurkat 2C4); [3]): 1900 nM

COc1nc2ccccc2cc1-c1cnc(CCCCCCC(=O)c2ncco2)[nH]1 [Example 73, 7-(5-(2-methoxyquinolin-3-yl)-1H-imidazol-2-yl)-1-(oxazol-2-yl)heptan-1-one]
IC50 (human HDAC1): 3.3 nM
IC50 (HDAC6): 2500 nM
IC50 [1]: 4.2 nM
IC50 (human HDAC8): 3900 nM
IC50 (human HDAC2): 16 nM
EC50 (KARN cells (Jurkat 2C4); [2]): 840 nM
EC50 (KARN cells (Jurkat 2C4); [3]): 15 nM

CCN[C@@H](CCCCCC(=O)c1ncco1)c1ncc(-c2ccc3nc(C)ccc3c2)[nH]1 [Example 74, (S)-7-(ethylamino)-7-(5-(2-methylquinolin-6-yl)-1H-imidazol-2-yl)-1-(oxazol-2-yl)heptan-1-one]
IC50 (human HDAC1): 1.6 nM
IC50 (HDAC6): ≥ 45000 nM
IC50 [1]: 1.8 nM
IC50 (human HDAC8): 4500 nM
IC50 (human HDAC2): 5 nM
EC50 (KARN cells (Jurkat 2C4); [2]): 140 nM
EC50 (KARN cells (Jurkat 2C4); [3]): 200 nM

CN[C@@H](CCCCCC(=O)c1ncco1)c1ncc(-c2cc3ccc(=O)n(C)c3cc2OC)[nH]1 [Example 76, (S)-7-methoxy-1-methyl-6-(2-(1-(methylamino)-7-(oxazol-2-yl)-7-oxoheptyl)-1H-imidazol-5-yl)quinolin-2(1H)-one]
IC50 (human HDAC1): 2.2 nM
IC50 (HDAC6): > 900 nM
IC50 [1]: 2.7 nM
IC50 (human HDAC8): > 900 nM
IC50 (human HDAC2): 6.7 nM
EC50 (KARN cells (Jurkat 2C4); [2]): 200 nM
EC50 (KARN cells (Jurkat 2C4); [3]): 220 nM

Cc1ccc2cc(-c3c[nH]c([C@H](CCCCCC(=O)c4ncco4)NC4CCOCC4)n3)ccc2n1 [Example 79, (S)-7-(5-(2-methylquinolin-6-yl)-1H-imidazol-2-yl)-1-(oxazol-2-yl)-7-((tetrahydro-2H-pyran-4-yl)amino)heptan-1-one]
IC50 (human HDAC1): 6.6 nM
IC50 (HDAC6): ≥ 45000 nM
IC50 [1]: 12 nM
IC50 (human HDAC8): 17000 nM
IC50 (human HDAC2): 35 nM
EC50 (KARN cells (Jurkat 2C4); [4]): 1000 nM
EC50 (KARN cells (Jurkat 2C4); read-out: Karn EC50 nM 5% NHS): 1300 nM

Cc1ccc2cc(-c3c[nH]c([C@H](CCCCCC(=O)c4ncco4)NCc4ccccc4)n3)ccc2n1 [Example 81, (S)-7-(benzylamino)-7-(5-(2-methylquinolin-6-yl)-1H-imidazol-2-yl)-1-(oxazol-2-yl)heptan-1-one]
IC50 (human HDAC1): 3.4 nM
IC50 (HDAC6): 21000 nM
IC50 [1]: 3.7 nM
IC50 (human HDAC8): 4900 nM
IC50 (human HDAC2): 16 nM
EC50 (KARN cells (Jurkat 2C4); [4]): 430 nM
EC50 (KARN cells (Jurkat 2C4); read-out: Karn EC50 nM 5% NHS): 690 nM

Cc1ccc2cc(-c3cnc([C@H](CCCCCC(=O)c4ncco4)N4CCOCC4)[nH]3)ccc2n1 [Example 83, (S)-7-(5-(2-methylquinolin-6-yl)-1H-imidazol-2-yl)-7-morpholino-1-(oxazol-2-yl)heptan-1-one]
IC50 (human HDAC1): 14 nM
IC50 (HDAC6): ≥ 45000 nM
IC50 [1]: 31 nM
IC50 (human HDAC8): 12000 nM
IC50 (human HDAC2): 62 nM
EC50 (KARN cells (Jurkat 2C4); [2]): 3400 nM
EC50 (KARN cells (Jurkat 2C4); [3]): 4200 nM

COc1cc2nc(C)ccc2cc1-c1cnc([C@H](CCCCCC(=O)c2ncco2)NC2CC(OC)C2)[nH]1 (stereo partly drawn) [Example 84, (S)-7-(5-(7-methoxy-2-methylquinolin-6-yl)-1H-imidazol-2-yl)-7-((3-methoxycyclobutyl)amino)-1-(oxazol-2-yl)heptan-1-one]
IC50 (human HDAC1): 4 nM
IC50 (HDAC6): 13000 nM
IC50 [1]: 7.9 nM
IC50 (human HDAC8): 3100 nM
IC50 (human HDAC2): 22 nM
EC50 (KARN cells (Jurkat 2C4); [2]): 490 nM
EC50 (KARN cells (Jurkat 2C4); [3]): 540 nM

COc1cc2nc(C)ccc2cc1-c1cnc([C@H](CCCCCC(=O)c2ncco2)Nc2ncccn2)[nH]1 [Example 85, (S)-7-(5-(7-methoxy-2-methylquinolin-6-yl)-1H-imidazol-2-yl)-1-(oxazol-2-yl)-7-(pyrimidin-2-ylamino)heptan-1-one]
IC50 (human HDAC1): 2.3 nM
IC50 (HDAC6): 250 nM
IC50 [1]: 1.5 nM
IC50 (human HDAC8): 210 nM
IC50 (human HDAC2): 11 nM
EC50 (KARN cells (Jurkat 2C4); [2]): 67 nM
EC50 (KARN cells (Jurkat 2C4); [3]): 210 nM

COC(=O)N[C@@H](CCCCCC(=O)c1ncco1)c1ncc(-c2cc3ccc(C)nc3cc2OC)[nH]1 [Example 86, (S)-methyl (1-(5-(7-methoxy-2-methylquinolin-6-yl)-1H-imidazol-2-yl)-7-(oxazol-2-yl)-7-oxoheptyl)carbamate]
IC50 (human HDAC1): 2 nM
IC50 (HDAC6): 40 nM
IC50 [1]: 1.5 nM
IC50 (human HDAC8): 160 nM
IC50 (human HDAC2): 9.9 nM
EC50 (KARN cells (Jurkat 2C4); [2]): 80 nM
EC50 (KARN cells (Jurkat 2C4); [3]): 160 nM

CC(=O)N[C@@H](CCCCCC(=O)c1ncco1)c1ncc(-c2ccc3nc(C)ccc3c2)[nH]1 [Example 87, (S)-N-(1-(5-(2-methylquinolin-6-yl)-1H-imidazol-2-yl)-7-(oxazol-2-yl)-7-oxoheptyl)acetamide]
IC50 (human HDAC1): 0.69 nM
IC50 (HDAC6): 8600 nM
IC50 [1]: 1.8 nM
IC50 (human HDAC8): 130 nM
IC50 (human HDAC2): 5.7 nM
EC50 (KARN cells (Jurkat 2C4); [4]): 43 nM
EC50 (KARN cells (Jurkat 2C4); read-out: Karn EC50 nM 5% NHS): 60 nM

O=C(CCCCC[C@H](NC(=O)c1cncs1)c1[nH]c(-c2ccc(F)cc2)nc1Cl)c1ncco1 [Example 88, (S)-N-(1-(4-chloro-2-(4-fluorophenyl)-1H-imidazol-5-yl)-7-(oxazol-2-yl)-7-oxoheptyl)thiazole-5-carboxamide]
IC50 (human HDAC1): 0.22 nM
IC50 (HDAC6): ≥ 45000 nM
IC50 [1]: 0.37 nM
IC50 (human HDAC8): 61 nM
IC50 (human HDAC2): 1.4 nM
EC50 (KARN cells (Jurkat 2C4); [2]): 25 nM
EC50 (KARN cells (Jurkat 2C4); [3]): 380 nM

COc1cc2nc(C)ccc2cc1-c1cnc([C@H](CCCCCC(=O)c2ncco2)NC(=O)CN(C)C)[nH]1 [Example 89, (S)-2-(dimethylamino)-N-(1-(5-(7-methoxy-2-methylquinolin-6-yl)-1H-imidazol-2-yl)-7-(oxazol-2-yl)-7-oxoheptyl)acetamide]
IC50 (human HDAC1): 0.8 nM
IC50 (HDAC6): 1700 nM
IC50 [1]: 1.5 nM
IC50 (human HDAC8): 69 nM
IC50 (human HDAC2): 3.4 nM
EC50 (KARN cells (Jurkat 2C4); [4]): 13 nM
EC50 (KARN cells (Jurkat 2C4); read-out: Karn EC50 nM 5% NHS): 32 nM
